# Molecular target: Acetyl-CoA carboxylase 2 (Homo sapiens, UniProt O00763)
# Test: Spectrophotometric 384 Well Assay: Assay reactions are then carried out in 384-well plates, with hACC2 in an appropriate dilution and at final assay concentrations (f.c.) of 100 mM Tris (pH 7.5), 10 mM trisodium citrate, 25 mM KHCO3, 10 mM MgCl2, 0.5 mg/ml BSA, 3.75 mM reduced L-glutathione, 15 U/ml lactate dehydrogenase, 0.5 mM phosphoenolpyruvate, 15 U/ml pyruvate kinase, compounds at different concentrations at final DMSO concentrations of 1%.The enzymatic reaction is then started by addition of a mixture of NADH, acetyl Coenzyme A (both 200 μM f.c.) and ATP (500 uM f.c.). The decrease of the optical density (slope S) is then determined at 25° C. at a wavelength of 340 nm over 15 minutes in a spectrophotometric reader.
# Chain of Acetyl-CoA carboxylase 2 (O00763 whole entry): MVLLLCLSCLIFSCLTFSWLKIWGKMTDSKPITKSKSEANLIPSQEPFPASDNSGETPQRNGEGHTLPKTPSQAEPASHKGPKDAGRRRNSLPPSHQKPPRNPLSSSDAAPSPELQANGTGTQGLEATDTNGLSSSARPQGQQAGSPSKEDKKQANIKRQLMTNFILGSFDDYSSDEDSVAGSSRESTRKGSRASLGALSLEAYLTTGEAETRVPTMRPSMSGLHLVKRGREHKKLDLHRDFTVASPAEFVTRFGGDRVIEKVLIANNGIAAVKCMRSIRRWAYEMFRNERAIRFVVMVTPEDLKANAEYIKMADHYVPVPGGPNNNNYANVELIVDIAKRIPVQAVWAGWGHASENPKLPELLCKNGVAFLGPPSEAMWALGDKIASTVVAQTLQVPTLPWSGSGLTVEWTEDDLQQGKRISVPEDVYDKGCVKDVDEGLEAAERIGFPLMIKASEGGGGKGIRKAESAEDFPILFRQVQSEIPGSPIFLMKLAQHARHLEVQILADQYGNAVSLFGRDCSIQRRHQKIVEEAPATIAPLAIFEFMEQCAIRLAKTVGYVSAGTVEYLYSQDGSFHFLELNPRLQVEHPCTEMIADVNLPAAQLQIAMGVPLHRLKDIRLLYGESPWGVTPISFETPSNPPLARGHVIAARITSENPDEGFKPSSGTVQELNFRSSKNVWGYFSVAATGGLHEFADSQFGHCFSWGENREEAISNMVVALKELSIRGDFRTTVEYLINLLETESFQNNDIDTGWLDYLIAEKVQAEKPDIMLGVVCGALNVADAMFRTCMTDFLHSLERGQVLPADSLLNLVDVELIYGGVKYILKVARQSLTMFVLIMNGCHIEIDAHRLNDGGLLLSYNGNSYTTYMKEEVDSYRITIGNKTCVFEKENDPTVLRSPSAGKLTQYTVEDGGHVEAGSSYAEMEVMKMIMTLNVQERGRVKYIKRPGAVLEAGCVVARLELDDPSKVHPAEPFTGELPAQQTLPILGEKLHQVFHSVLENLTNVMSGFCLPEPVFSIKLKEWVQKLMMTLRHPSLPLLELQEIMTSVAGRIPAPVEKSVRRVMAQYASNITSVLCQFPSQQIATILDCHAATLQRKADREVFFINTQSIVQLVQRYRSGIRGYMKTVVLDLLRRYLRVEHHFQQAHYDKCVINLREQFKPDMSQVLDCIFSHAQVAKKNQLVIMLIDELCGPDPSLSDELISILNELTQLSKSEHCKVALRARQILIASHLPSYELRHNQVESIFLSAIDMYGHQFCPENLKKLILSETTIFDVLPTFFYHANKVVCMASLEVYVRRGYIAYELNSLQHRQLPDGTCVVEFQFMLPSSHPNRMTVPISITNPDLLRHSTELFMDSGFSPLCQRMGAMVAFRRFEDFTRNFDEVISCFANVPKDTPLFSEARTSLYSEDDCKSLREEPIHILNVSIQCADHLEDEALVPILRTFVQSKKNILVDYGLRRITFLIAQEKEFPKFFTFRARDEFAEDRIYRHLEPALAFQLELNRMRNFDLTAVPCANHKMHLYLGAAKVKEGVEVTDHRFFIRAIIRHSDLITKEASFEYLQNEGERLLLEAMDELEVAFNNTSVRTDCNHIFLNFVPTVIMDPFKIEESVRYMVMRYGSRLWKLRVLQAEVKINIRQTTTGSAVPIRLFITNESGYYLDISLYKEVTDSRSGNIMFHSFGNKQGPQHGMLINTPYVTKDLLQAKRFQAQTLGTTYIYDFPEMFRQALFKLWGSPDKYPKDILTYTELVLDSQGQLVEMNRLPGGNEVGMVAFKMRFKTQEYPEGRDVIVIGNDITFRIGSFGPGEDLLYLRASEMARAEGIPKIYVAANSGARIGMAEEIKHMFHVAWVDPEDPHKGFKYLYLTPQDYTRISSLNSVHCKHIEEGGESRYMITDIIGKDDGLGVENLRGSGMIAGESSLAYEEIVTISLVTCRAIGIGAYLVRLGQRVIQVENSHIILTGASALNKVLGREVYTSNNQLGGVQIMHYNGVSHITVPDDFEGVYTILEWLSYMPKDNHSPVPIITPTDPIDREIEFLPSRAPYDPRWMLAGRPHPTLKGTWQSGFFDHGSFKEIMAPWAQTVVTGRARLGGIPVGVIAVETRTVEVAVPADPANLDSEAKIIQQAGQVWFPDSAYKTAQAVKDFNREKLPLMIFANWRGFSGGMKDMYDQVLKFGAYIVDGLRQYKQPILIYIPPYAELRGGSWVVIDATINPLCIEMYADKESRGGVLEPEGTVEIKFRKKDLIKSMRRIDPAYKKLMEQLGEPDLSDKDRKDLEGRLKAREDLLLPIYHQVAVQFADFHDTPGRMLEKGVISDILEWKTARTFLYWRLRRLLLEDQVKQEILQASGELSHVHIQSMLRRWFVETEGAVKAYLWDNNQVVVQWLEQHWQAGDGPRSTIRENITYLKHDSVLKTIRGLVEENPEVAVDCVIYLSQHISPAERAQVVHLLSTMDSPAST
row,SMILES,IC50 [nM]
1,COC(=O)N[C@@H](C)c1ccc(OC2CCN(c3ccc(OC(C)C)cc3)C2)cc1 (some centres not stated),1360
2,C[C@H](NC(=O)c1cn[nH]c1)c1ccc(O[C@@H]2CCN(c3ccc(OCC4CC4)cc3)C2)cc1,16

# Source: ChEMBL document CHEMBL3886310, “Pyrrolidine derivatives, pharmaceutical compositions and uses thereof” (2015)
